From article PMC12090182, “Repurposing of the RIPK1-Selective Benzo[1,4]oxazepin-4-one Scaffold for the Development of a Type III LIMK1/2 Inhibitor” (ACS Chemical Biology, 2025)

What was measured:
Assay type in all cases: binding
[1] = test system: FLT3(ITD,F691L); conditions: compound concentration 100 nM; Entrez FLT3
[2] = target: FLT3(D835Y) (Homo sapiens, UniProt P36888, D835Y); experiment: biochemical; conditions: 1000 nM, read-out: Percent Control
[3] = target: ABL1(E255K)-phosphorylated (Homo sapiens, UniProt P00519, E255K); experiment: biochemical; conditions: read-out: Percent Control
[4] = target: FLT3(D835V) (Homo sapiens, UniProt P36888, D835V); experiment: biochemical; conditions: 1000 nM, read-out: Percent Control
[5] = target: EGFR(L858R) (Homo sapiens, UniProt P00533, L858R); experiment: biochemical; conditions: compound concentration 100 nM; Entrez EGFR; read-out: Percent Control
[6] = target: FLT3(K663Q) (Homo sapiens, UniProt P36888, K663Q); experiment: biochemical; conditions: compound concentration 100 nM; Entrez FLT3; read-out: Percent Control
[7] = target: RET(V804M) (Homo sapiens, UniProt P07949, V804M); experiment: biochemical; conditions: 1000 nM, read-out: Percent Control
[8] = target: KIT(V559D,T670I) (Homo sapiens, UniProt P10721, T670I/V559D); experiment: biochemical; conditions: compound concentration 100 nM; Entrez KIT; read-out: Percent Control
[9] = target: PIK3CA(H1047L) (Homo sapiens, UniProt P42336, H1047L); experiment: biochemical; conditions: read-out: Percent Control
PIK3CA(H1047L), sequence (P42336 whole entry H1047L): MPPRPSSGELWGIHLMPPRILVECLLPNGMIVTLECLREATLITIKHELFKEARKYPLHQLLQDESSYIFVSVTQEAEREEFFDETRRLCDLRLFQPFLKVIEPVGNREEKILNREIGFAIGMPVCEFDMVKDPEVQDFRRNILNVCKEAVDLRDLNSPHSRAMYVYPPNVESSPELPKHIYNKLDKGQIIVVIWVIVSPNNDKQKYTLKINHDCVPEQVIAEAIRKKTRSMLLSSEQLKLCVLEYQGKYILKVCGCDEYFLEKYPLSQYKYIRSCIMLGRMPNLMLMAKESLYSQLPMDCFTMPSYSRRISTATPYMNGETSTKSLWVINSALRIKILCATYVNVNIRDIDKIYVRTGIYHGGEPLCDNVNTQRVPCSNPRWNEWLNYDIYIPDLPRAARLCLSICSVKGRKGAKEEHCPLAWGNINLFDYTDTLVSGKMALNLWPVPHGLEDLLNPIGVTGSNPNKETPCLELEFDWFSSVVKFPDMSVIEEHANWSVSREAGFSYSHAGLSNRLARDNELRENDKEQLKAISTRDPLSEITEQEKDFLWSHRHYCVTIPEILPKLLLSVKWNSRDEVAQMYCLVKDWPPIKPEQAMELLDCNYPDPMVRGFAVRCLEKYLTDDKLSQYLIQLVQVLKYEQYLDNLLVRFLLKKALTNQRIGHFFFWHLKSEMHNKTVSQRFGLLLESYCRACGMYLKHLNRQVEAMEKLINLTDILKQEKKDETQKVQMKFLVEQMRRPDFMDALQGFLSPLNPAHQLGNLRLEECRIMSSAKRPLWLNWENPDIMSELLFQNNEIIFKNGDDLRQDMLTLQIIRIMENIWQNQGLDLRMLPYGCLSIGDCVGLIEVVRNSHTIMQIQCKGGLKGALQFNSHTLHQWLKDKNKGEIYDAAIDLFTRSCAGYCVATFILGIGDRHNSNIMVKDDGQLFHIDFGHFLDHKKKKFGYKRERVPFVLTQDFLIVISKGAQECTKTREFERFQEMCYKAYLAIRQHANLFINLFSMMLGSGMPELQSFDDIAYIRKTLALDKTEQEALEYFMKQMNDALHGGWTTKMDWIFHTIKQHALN

EGFR(L858R), sequence (P00533 25-1210 L858R): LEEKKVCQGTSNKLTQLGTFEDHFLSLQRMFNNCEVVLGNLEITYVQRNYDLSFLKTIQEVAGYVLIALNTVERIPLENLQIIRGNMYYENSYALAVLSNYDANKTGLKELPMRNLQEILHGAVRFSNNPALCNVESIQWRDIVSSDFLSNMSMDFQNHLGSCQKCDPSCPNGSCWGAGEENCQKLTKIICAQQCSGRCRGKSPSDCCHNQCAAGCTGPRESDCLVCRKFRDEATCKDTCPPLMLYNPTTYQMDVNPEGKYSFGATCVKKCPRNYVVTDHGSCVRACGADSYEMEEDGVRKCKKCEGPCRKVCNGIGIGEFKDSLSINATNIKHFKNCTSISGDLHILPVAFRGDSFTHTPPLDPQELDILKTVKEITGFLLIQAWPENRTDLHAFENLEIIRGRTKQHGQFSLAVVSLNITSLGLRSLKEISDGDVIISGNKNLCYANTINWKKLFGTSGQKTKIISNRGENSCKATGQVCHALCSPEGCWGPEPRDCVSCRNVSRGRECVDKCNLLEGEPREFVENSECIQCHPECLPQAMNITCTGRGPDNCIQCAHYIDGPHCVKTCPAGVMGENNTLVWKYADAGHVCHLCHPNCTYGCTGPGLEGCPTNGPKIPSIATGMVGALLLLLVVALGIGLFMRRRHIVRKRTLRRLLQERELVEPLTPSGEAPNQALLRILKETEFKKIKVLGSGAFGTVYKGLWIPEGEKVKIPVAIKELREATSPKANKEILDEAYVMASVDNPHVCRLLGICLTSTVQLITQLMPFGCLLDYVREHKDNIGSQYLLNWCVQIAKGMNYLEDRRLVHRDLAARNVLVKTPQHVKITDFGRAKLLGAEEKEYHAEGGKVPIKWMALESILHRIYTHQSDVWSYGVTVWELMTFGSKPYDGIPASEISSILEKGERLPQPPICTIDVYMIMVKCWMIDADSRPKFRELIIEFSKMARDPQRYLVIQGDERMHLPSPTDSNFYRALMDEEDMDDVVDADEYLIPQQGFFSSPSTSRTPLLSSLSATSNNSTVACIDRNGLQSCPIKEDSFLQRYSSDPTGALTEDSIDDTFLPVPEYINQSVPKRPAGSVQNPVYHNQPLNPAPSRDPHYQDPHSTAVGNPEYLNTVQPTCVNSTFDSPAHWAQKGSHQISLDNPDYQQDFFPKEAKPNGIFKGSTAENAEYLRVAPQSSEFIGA
ABL1(E255K)-phosphorylated, sequence (P00519 whole entry E255K): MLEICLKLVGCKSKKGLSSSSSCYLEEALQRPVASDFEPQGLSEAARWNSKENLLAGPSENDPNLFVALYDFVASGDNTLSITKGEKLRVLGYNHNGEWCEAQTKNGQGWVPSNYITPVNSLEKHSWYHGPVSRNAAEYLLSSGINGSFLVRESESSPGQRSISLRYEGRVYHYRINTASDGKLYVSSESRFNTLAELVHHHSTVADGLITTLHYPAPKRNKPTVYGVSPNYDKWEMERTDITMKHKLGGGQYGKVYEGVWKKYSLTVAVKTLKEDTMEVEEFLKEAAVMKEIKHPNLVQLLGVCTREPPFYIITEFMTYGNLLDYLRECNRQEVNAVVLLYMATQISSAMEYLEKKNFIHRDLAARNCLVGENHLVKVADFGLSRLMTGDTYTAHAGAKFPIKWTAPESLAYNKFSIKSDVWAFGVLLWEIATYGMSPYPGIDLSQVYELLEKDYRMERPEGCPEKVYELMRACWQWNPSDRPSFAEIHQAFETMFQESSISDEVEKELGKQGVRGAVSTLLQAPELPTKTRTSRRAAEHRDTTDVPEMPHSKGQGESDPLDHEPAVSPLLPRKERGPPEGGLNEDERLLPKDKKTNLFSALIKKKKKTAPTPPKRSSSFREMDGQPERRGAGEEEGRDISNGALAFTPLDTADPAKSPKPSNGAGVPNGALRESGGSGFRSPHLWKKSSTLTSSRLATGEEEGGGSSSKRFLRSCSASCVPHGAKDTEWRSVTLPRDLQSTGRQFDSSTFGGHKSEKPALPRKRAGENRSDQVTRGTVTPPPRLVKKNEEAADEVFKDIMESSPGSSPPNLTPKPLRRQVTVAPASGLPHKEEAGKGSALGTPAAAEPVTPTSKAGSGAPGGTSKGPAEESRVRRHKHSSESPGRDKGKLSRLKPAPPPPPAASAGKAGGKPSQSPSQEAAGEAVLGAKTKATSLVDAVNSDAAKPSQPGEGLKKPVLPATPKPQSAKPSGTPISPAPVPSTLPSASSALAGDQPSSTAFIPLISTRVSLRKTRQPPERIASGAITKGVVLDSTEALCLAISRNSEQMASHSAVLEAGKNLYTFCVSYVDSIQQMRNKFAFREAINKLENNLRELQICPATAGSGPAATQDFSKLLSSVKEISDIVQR
RET(V804M), sequence (P07949 29-1114 V804M): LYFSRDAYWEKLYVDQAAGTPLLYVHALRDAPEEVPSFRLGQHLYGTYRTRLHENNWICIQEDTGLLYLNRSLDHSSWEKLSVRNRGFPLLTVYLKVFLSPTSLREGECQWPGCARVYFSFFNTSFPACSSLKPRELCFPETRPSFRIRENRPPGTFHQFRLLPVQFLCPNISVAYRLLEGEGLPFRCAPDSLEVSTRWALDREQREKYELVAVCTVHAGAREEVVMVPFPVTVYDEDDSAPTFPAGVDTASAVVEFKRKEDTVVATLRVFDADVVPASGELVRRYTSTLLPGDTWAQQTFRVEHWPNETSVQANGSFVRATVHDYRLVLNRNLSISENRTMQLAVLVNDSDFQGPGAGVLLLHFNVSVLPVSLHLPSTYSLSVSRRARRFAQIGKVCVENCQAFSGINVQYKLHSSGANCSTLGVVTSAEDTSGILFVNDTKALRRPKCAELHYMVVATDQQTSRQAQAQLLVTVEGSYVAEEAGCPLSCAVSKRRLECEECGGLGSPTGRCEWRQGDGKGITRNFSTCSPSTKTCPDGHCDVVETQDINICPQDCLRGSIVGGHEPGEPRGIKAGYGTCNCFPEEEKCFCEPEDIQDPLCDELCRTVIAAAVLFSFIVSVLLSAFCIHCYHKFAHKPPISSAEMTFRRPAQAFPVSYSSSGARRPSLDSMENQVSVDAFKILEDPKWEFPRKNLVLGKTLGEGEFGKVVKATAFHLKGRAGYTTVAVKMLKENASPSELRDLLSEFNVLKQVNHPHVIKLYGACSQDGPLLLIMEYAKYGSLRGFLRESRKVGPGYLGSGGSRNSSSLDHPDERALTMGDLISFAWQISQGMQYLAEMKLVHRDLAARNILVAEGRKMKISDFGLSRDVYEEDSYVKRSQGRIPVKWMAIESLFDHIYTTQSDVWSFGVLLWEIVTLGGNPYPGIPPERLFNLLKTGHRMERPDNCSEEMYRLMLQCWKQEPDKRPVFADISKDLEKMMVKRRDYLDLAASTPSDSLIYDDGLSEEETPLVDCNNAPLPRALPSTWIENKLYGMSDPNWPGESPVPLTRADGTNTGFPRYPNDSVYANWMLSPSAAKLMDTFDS

CN1C(=O)[C@@H](N2CCc3c(nn(Cc4ccccc4)c3C(N)=O)C2=O)COc2cc(Cl)ccc21 [Compound 10, (S)-2-benzyl-6-(8-chloro-5-methyl-4-oxo-2,3,4,5-tetrahydrobenzo[b][1,4]oxazepin-3-yl)-7-oxo-4,5,6,7-tetrahydro-2H-pyrazolo[3,4-c]pyridine-3-carboxamide]
Percent Control [1]: 100 | remaining activity at 1 µM [2]: 94% | remaining activity at 1 µM [3]: 94% | remaining activity at 1 µM [4]: 56% | remaining activity at 0.1 µM [5]: 100% | remaining activity at 0.1 µM [6]: 100% | remaining activity at 1 µM [7]: 93% | remaining activity at 0.1 µM [8]: 92% | remaining activity at 1 µM [9]: 99%
